# Test results taken from patent publication US20240343704A1, “HALO-SUBSTITUTED AMINO PYRIDINE COMPOUNDS AS INHIBITORS OF THE HAEMATOPOIETIC PROGENITOR KINASE 1 (HPK1)” (priority 2021, published 2024).
# Biological target: T1, Recombinant (1-346) HPK1 (h) (Homo sapiens, UniProt Q92918)
# T1 construct: Recombinant (1-346) HPK1 (h) is incubated with 8 mM MOPS pH 7.0
# T1 sequence (Q92918 1-346): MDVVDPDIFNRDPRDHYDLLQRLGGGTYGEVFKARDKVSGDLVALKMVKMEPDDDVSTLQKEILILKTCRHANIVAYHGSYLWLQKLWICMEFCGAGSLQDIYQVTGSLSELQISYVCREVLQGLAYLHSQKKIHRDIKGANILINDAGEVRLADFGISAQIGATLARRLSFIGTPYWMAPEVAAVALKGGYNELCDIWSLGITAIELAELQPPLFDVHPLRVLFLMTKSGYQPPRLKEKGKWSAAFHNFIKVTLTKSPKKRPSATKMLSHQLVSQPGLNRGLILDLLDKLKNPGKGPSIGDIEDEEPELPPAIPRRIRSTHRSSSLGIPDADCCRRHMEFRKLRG
# Test: HPK1 Human STE Kinase Enzymatic Radiometric Assay
# Assay type: biochemical
# Conditions: read-out: HPK1 IC50 nM Range*
# Protocol: A stock solution of 10 mM of test compound is prepared in DMSO. The compound plate was prepared by 3-fold and 9-point serial dilutions. […] The reaction is initiated by The addition of the Mg/ATP mix. After incubation for 40 minutes at RT, the reaction is stopped by the addition of phosphoric acid to a concentration of 0.5%.
row,Structure (SMILES),IC50 [nM]
1,"Nc1nc(F)c(-c2ccc(N3CCCCC3)cc2)cc1-c1ccc2c(c1)CCNC2=O [I-60, 6-(2-amino-6-fluoro-5-(4-(piperidin-1-yl)phenyl)pyridin-3-yl)-3,4-dihydroisoquinolin-1(2H)-one]",0.1 to 10
2,"Nc1nc(F)c(-c2ccc(OC3CCNCC3)c(C(F)(F)F)c2)cc1-c1ccc2c(c1)CCNC2=O [I-190, 6-(2-amino-6-fluoro-5-(4-(piperidin-4-yloxy)-3-(trifluoromethyl)phenyl)pyridin-3-yl)-3,4-dihydroisoquinolin-1(2H)-one]",11 to 100
3,"CC(=O)N1CCC(Oc2ccc(-c3cc(-c4cc5c(cc4F)C(=O)NCC5)c(N)nc3F)cc2C#N)CC1 [I-291, 2-((1-acetylpiperidin-4-yl)oxy)-5-(6-amino-2-fluoro-5-(7-fluoro-1-oxo-1,2,3,4-tetrahydroisoquinolin-6-yl)pyridin-3-yl)benzonitrile]",0.1 to 10
4,"Nc1nc(F)c(-c2ccc(CN3CCOCC3)cc2)cc1-c1cc(F)c2c(c1)CCNC2=O [I-360, 6-(2-amino-6-fluoro-5-(4-(morpholinomethyl)phenyl)pyridin-3-yl)-8-fluoro-3,4-dihydroisoquinolin-1(2H)-one]",0.1 to 10
5,"Nc1nc(F)c(-c2ccc(N3CCOCC3)c(F)c2)cc1-c1cc(F)c2c(c1)CCNC2=O [I-361, 6-(2-amino-6-fluoro-5-(3-fluoro-4-morpholinophenyl)pyridin-3-yl)-8-fluoro-3,4-dihydroisoquinolin-1(2H)-one]",0.1 to 10
6,"CC(C)N1CCN(c2ccc(-c3cc(-c4ccc5c(=O)[nH]c(C6CC6)nc5c4)c(N)nc3F)cc2)CC1 [I-412, 7-(2-amino-6-fluoro-5-(4-(4-isopropylpiperazin-1-yl)phenyl)pyridin-3-yl)-2-cyclopropylquinazolin-4(3H)-one]",101 to 1000
7,"CC(C)N1CCN(c2ccc(-c3cc(-c4ccc5c(=O)[nH]c(C6CCC6)nc5c4)c(N)nc3F)cc2)CC1 [I-413, 7-(2-amino-6-fluoro-5-(4-(4-isopropylpiperazin-1-yl)phenyl)pyridin-3-yl)-2-cyclobutylquinazolin-4(3H)-one]",101 to 1000
8,"CC(C)N1CCN(c2ccc(-c3cc(-c4ccc5c(=O)[nH]c(Cl)nc5c4)c(N)nc3F)cc2)CC1 [I-418, 7-(2-amino-6-fluoro-5-(4-(4-isopropylpiperazin-1-yl)phenyl)pyridin-3-yl)-2-chloroquinazolin-4(3H)-one]",101 to 1000
9,"COc1nc2cc(-c3cc(-c4ccc(N5CCN(C(C)C)CC5)cc4)c(F)nc3N)ccc2c(=O)[nH]1 [I-419, 7-(2-amino-6-fluoro-5-(4-(4-isopropylpiperazin-1-yl)phenyl)pyridin-3-yl)-2-methoxyquinazolin-4(3H)-one]",11 to 100
10,"CC(C)N1CCN(c2ccc(-c3cc(-c4ccc5c(=O)[nH]c(N(C)C)nc5c4)c(N)nc3F)cc2)CC1 [I-420, 7-(2-amino-6-fluoro-5-(4-(4-isopropylpiperazin-1-yl)phenyl)pyridin-3-yl)-2-(dimethylamino)quinazolin-4(3H)-one]",101 to 1000
11,"CNc1nc2cc(-c3cc(-c4ccc(N5CCN(C(C)C)CC5)cc4)c(F)nc3N)ccc2c(=O)[nH]1 [I-421, 7-(2-amino-6-fluoro-5-(4-(4-isopropylpiperazin-1-yl)phenyl)pyridin-3-yl)-2-(methylamino)quinazolin-4(3H)-one]",11 to 100
12,"CC(C)N1CCN(c2ccc(-c3cc(-c4ccc5c(=O)[nH]c(N)nc5c4)c(N)nc3F)cc2)CC1 [I-422, 2-amino-7-(2-amino-6-fluoro-5-(4-(4-isopropylpiperazin-1-yl)phenyl)pyridin-3-yl)quinazolin-4(3H)-one]",0.1 to 10
13,"CC(C)N1CCN(c2ccc(-c3cc(-c4ccc5c(c4)S(=O)(=O)CNC5=O)c(N)nc3F)cc2)CC1 [I-424, 7-(2-amino-6-fluoro-5-(4-(4-isopropylpiperazin-1-yl)phenyl)pyridin-3-yl)-2,3-dihydro-4H-benzo[e][1,3]thiazin-4-one 1,1-dioxide]",11 to 100
14,"CCN(C)Cc1cc(-c2cc(-c3ccc4c(c3)CCNC4=O)c(N)nc2F)ccc1C1CCOCC1 [I-428, 6-(2-amino-5-(3-((ethyl(methyl)amino)methyl)-4-(tetrahydro-2H-pyran-4-yl)phenyl)-6-fluoropyridin-3-yl)-3,4-dihydroisoquinolin-1(2H)-one]",11 to 100
15,"CN1CC2(CCN(c3ccc(-c4cc(-c5ccc6c(c5)CCNC6=O)c(N)nc4F)cc3)CC2)C1 [I-430, 6-(2-amino-6-fluoro-5-(4-(2-methyl-2,7-diazaspiro[3.5]nonan-7-yl)phenyl)pyridin-3-yl)-3,4-dihydroisoquinolin-1(2H)-one]",0.1 to 10
16,"CN(C)Cc1cc(-c2cc(-c3cc4c(cc3F)C(=O)NCC4)c(N)nc2F)ccc1N1CCOCC1 [I-433, 6-(2-amino-5-(3-((dimethylamino)methyl)-4-morpholinophenyl)-6-fluoropyridin-3-yl)-7-fluoro-3,4-dihydroisoquinolin-1(2H)-one]",0.1 to 10
17,"COc1cc2c(cc1-c1cc(-c3ccc4c(c3)CCNC4=O)c(N)nc1F)CN(C)CC2 [I-438, 6-(2-amino-6-fluoro-5-(6-methoxy-2-methyl-1,2,3,4-tetrahydroisoquinolin-7-yl)pyridin-3-yl)-3,4-dihydroisoquinolin-1(2H)-one]",11 to 100
18,"CN(C)Cc1cc(-c2cc(-c3ccc4c(c3)CCNC4=O)c(N)nc2F)ccc1N1CCN(C(=O)OC(C)(C)C)CC1 [I-442, tert-butyl 4-(4-(6-amino-2-fluoro-5-(1-oxo-1,2,3,4-tetrahydroisoquinolin-6-yl)pyridin-3-yl)-2-((dimethylamino)methyl)phenyl)piperazine-1-carboxylate]",0.1 to 10
19,"CN1CCC[C@H]1c1cccc(-c2cc(-c3ccc4c(c3)CCNC4=O)c(N)nc2F)c1 [I-443, (S)-6-(2-amino-6-fluoro-5-(3-(1-methylpyrrolidin-2-yl)phenyl)pyridin-3-yl)-3,4-dihydroisoquinolin-1(2H)-one]",101 to 1000
20,"CN1CCC[C@H]1c1cccc(-c2cc(-c3cc4c(cc3F)C(=O)NCC4)c(N)nc2F)c1 [I-444, (S)-6-(2-amino-6-fluoro-5-(3-(1-methylpyrrolidin-2-yl)phenyl)pyridin-3-yl)-7-fluoro-3,4-dihydroisoquinolin-1(2H)-one]",11 to 100
21,"CN(C)Cc1cc(-c2cc(-c3cc4c(cc3F)C(=O)NCC4)c(N)nc2F)ccc1N1CCN(CCCC(F)F)CC1 [I-447, 6-(2-amino-5-(4-(4-(4,4-difluorobutyl)piperazin-1-yl)-3-((dimethylamino)methyl)phenyl)-6-fluoropyridin-3-yl)-7-fluoro-3,4-dihydroisoquinolin-1(2H)-one]",0.1 to 10
22,"COCCN1CCc2c(C)cc(-c3cc(-c4ccc5c(c4)CCNC5=O)c(N)nc3F)cc2C1 [I-448, 6-(2-amino-6-fluoro-5-(2-(2-methoxyethyl)-5-methyl-1,2,3,4-tetrahydroisoquinolin-7-yl)pyridin-3-yl)-3,4-dihydroisoquinolin-1(2H)-one]",0.1 to 10
23,"COC1(C)NC(=O)c2ccc(-c3cc(-c4ccc(N5CCN(C(C)C)CC5)cc4)c(F)nc3N)cc2C1(F)F (centres unmarked) [I-450, 6-(2-amino-6-fluoro-5-(4-(4-isopropylpiperazin-1-yl)phenyl)pyridin-3-yl)-4,4-difluoro-3-methoxy-3-methyl-3,4-dihydroisoquinolin-1(2H)-one]",11 to 100
